Common to all, as to type: in vivo
In data set [1] the test system is Lasius ant (Lasius niger). As to the kind of experiment: Direct spray contact toxicity, Lasius ant. As to conditions: ten insects on asphalt slab, directly sprayed for 2 seconds. The protocol: (§1) Formulations of geraniol, cedar oil and mixtures thereof were evaluated for contact toxicity against the Lasius ant (Lasius niger), lady beetle (Harmonia axyridis), brown stink bug (Halyomorpha halys), green peach aphid (Myzus persicae), house cricket (Acheta domesticus) and […] bug (Pseudococcus longispinus). […] Each test solution was poured into a 16 ounce spray can, a valve was installed and the can was charged with carbon dioxide as the propellant. Direct spraying of the test substance onto insects was performed to determine the efficacy of each test solution as follows: Lasius ant and lady beetle test-In separate tests, ten insects of each species were placed onto an asphalt slab and directly sprayed for 2 seconds with the appropriate test solutions.

For data set [2], the system named is green peach aphid (Myzus persicae). As to the kind of experiment: Spray to runoff of infested bell pepper plant, green peach aphid. The settings on record: infested bell pepper plant sprayed until runoff. As to the method:
as §1, with “Green peach aphid” for “Lasius ant and lady beetle”, “a bell pepper plant, infested with green peach aphids, was” for “ten insects of each species were placed onto an asphalt slab and directly”, “sprayed” for “sprayed for 2 seconds”, “solution until runoff.” for “solutions.”

For data set [3], the system named is lady beetle (Harmonia axyridis). As to the kind of experiment: Direct spray contact toxicity, lady beetle. The settings on record: ten insects on asphalt slab, directly sprayed for 2 seconds. The protocol:
as §1

The test system of data set [4] is house cricket (Acheta domesticus). As to the kind of experiment: Direct spray contact toxicity, house cricket. The settings on record: ten insects on concrete slab, directly sprayed for 2 seconds. The protocol: as §1, with “follows: Brown stink bug” for “follows: Lasius ant”, “and house cricket” for “and lady beetle”, “onto a concrete” for “onto an asphalt”
For data set [5], the system named is longtail mealy bug (Pseudococcus longispinus). As to the kind of experiment: Spray to runoff of infested Euonymus leaves, longtail mealy bug. The settings on record: ten bugs on variegated Euonymus leaves sprayed until runoff, assessed after 24 hours. The protocol:
Formulations of geraniol, cedar oil and mixtures thereof were evaluated for contact toxicity against the Lasius ant (Lasius niger), lady beetle (Harmonia axyridis), brown stink bug (Halyomorpha halys), green peach aphid (Myzus persicae), house cricket (Acheta domesticus) and longtail mealy bug (Pseudococcus longispinus). The plant oil test solutions were prepared by dissolving the appropriate amount of the plant oil(s) in deionized water containing 0.5% by weight sodium laureth sulfate, for example 4.4 grams of geraniol was dissolved in 1 liter of deioinized water containing 5 grams of sodium laureth sulfate to prepare a 0.44% test solution of geraniol. Each test solution was poured into a 16 ounce spray can, a valve was installed and the can was charged with carbon dioxide as the propellant. Direct spraying of the test substance onto insects was performed to determine the efficacy of each test solution as follows:
Longtail mealy bug test—In separate tests, ten longtail mealy bugs were established on several leaves of a variegated Euonymus plant, the infested leaves were sprayed with the appropriate test solution until runoff.

The subject of data set [6] is brown stink bug (Halyomorpha halys). The experiment in a line: Direct spray contact toxicity, brown stink bug. As to conditions: ten insects on concrete slab, directly sprayed for 2 seconds. The protocol: as §1, with “follows: Brown stink bug” for “follows: Lasius ant”, “and house cricket” for “and lady beetle”, “onto a concrete” for “onto an asphalt”

SMILES strings stand for the structures.

Regarding `CC(C)=CCC/C(C)=C/CO` [0.44% geraniol, trans-3,7-dimethyl-2,6-octadien-1-ol], the Recovery from knockdown entry in data set [1], in data set [2], in data set [3], in data set [4] and in data set [6] was “None” each time. In addition, the “Time to 100% Knockdown” value in data set [1] is 9 s; in data set [2], “No apparent”; in data set [3], 20 s; in data set [4] it was 60 s; in data set [6] it was 20 s. Moreover, the “Time to 100% mortality” value in data set [1] turned out to be 20 s; in data set [2], 3 h; in data set [3], 60 s; in data set [4], 3 h; in data set [6], 90 s. Besides, in data set [5], the “mortality at 24 hours” value is given as 50% mortality at.

Source of the values: patent US9480251B2, “Insecticidal compositions and method for insect control” (FMC Corporation, priority 2010, dated 2016).
